The results in this text go back to patent US10336762B2 (priority 2017, dated 2019).

Structures are written as SMILES. Bounds are passed on as bounds.

The test system of one test is TNFα. As to the kind of experiment: cells. Type of test: cell-based, human. The conditions noted are these: Homo sapiens, Monocyte, LPS-stimulated human monocytes, TNFα content; read-out: EC50 TNF.
For another test, the target named is IRAK4 enzyme (Homo sapiens (Human), UniProt Q9NWZ3). In words: biochemical. In kind it is biochemical. The conditions noted are these: IRAK4 enzyme, TR-FRET, 500 μM ATP.
IRAK4 enzyme, sequence (Q9NWZ3 whole entry): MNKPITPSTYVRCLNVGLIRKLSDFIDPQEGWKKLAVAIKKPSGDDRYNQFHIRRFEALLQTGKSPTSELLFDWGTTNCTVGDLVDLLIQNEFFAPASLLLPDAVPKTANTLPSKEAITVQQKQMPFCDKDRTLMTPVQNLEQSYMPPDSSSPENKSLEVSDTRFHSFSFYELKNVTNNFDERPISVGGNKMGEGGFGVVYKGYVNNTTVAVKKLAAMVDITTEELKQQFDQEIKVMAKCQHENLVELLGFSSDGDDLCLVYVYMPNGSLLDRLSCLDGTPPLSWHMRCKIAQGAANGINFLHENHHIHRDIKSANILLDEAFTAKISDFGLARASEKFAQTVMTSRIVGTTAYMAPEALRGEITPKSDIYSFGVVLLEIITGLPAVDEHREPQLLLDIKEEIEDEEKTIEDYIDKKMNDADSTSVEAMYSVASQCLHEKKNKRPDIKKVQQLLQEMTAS

Method for TNFα: IRAK4 Monocyte TNFα Cell Based Assay Procedure:
The cell suspension was then plated at a density of 5,000 cells/well onto black 384 well Greiner clear bottom plates. Plates were pre-spotted with test compounds and serially diluted in DMSO where 200 nL/well were delivered using the Echo 550 acoustic liquid dispenser (Labcyte®) for a final DMSO concentration of 0.5%. Plated cells were treated with compound for 1 hour at 37° C. Cells were then stimulated with 50 pg/ml of LPS (Sigma) excluding outside columns of plate used for unstimulated cell control wells. Cells were incubated for an additional 4 hours at 37° C. Cells were then spun out of the media and 5 μl of sample were taken and analyzed for total TNFα content using the TR-FRET Human TNFα detection system (CisBio). This system utilizes two labeled antibodies (cryptate and XL665) that bind to two different epitopes of the TNFα molecule and produce FRET signal proportional to the concentration of TNFα in the sample. Detection antibodies are mixed 50:50 and 5 μL were dispensed into each well. Plates were covered with clear seals and incubated at room temp overnight. […] Percent of control was calculated as follows: % Control=100×(RatioSample−Ratio0% stimulation)/(Ratio100% Stimulation−Ratio0% Stimulation) where unstimulated cells (0% stimulation) were the negative control and stimulated cells (100% stimulation) were used as the positive control.

Turning to `CC(C)Nc1cc(-c2ccc3cc(C#N)cnn23)ncc1C(=O)N[C@H]1CC[C@H](NC(=O)C(F)(F)F)CC1` [Example 127, 6-(3-cyanopyrrolo[1,2-b]pyridazin-7-yl)-4-(isopropyl-amino)-N-((1r,4r)-4-(2,2,2-trifluoroacetamido)cyclohexyl)nicotinamide], in the test on TNFα, the concentration for a half-maximal effect (EC50) (in general, the midpoint of the concentration-response curve) worked out at 112 nM. In addition, the 50% inhibitory concentration (IC50) (as a rule, the concentration needed to halve the response being measured) against IRAK4 enzyme is less than 1 nM.

Regarding `CCn1cnc(Nc2cc(-c3ccc4cc(C#N)cnn34)ncc2C(=O)NC[C@@H](F)C(C)(C)O)n1` [Example 128, (R)-6-(3-cyanopyrrolo[1,2-b]pyridazin-7-yl)-4-((1-ethyl-1H-1,2,4-triazol-3-yl)amino)-N-(2-fluoro-3-hydroxy-3-methylbutyl)nicotinamide], the EC50 with TNFα is 141 nM. On IRAK4 enzyme, this compound had an IC50 of 1 nM.

In the case of `CC(C)(O)[C@H](F)CNC(=O)c1cnc(-c2ccc3cc(C#N)cnn23)cc1Nc1cnn2c1CCCC2` [Example 129, (R)-6-(3-cyanopyrrolo[1,2-b]pyridazin-7-yl)-N-(2-fluoro-3-hydroxy-3-methylbutyl)-4-((4,5,6,7-tetrahydropyrazolo[1,5-a]pyridin-3-yl)amino)nicotinamide], the EC50 in the test with TNFα came out at 377 nM. Besides, on IRAK4 enzyme, the IC50 was 6 nM.

Take `CC1(C)OCCC1Nc1cc(-c2ccc3cc(C#N)cnn23)ncc1C(=O)NC[C@@H](F)C(C)(C)O` (stereo partly drawn) [Example 130, 6-(3-cyanopyrrolo[1,2-b]pyridazin-7-yl)-4-((2,2-dimethyltetrahydrofuran-3-yl)amino)-N-((R)-2-fluoro-3-hydroxy-3-methylbutyl)nicotinamide]: in the test on TNFα, the EC50 was found to be 221 nM. Also, at IRAK4 enzyme, the half-inhibitory concentration (IC50) is 3 nM.

Turning to `CC(=O)NC12CCC(NC(=O)c3cnc(-c4ccc5cc(C#N)cnn45)cc3NC(C)C)(CC1)CC2` [Example 131, N-(4-acetamido-bicyclo[2.2.2]octan-1-yl)-6-(3-cyanopyrrolo[1,2-b]pyridazin-7-yl)-4-(isopropylamino) nicotinamide], the EC50 in the test with TNFα was 154 nM. The same compound came in with an IC50 against IRAK4 enzyme of 1 nM.

For `CC(=O)NC12CC(NC(=O)c3cnc(-c4ccc5cc(C#N)cnn45)cc3NC(C)C)(C1)C2` [Example 132, N-(3-acetamidobicyclo [1.1.1]pentan-1-yl)-6-(3-cyanopyrrolo[1,2-b]pyridazin-7-yl)-4-(isopropylamino) nicotinamide], the EC50 in the test on TNFα was 222 nM. Further, the IC50 on IRAK4 enzyme is 5 nM.

As to `COCCCNc1cc(-c2ccc3cc(C#N)cnn23)ncc1C(=O)NC[C@@H](F)C(C)(C)O` [Example 133, (R)-6-(3-cyanopyrrolo[1,2-b]pyridazin-7-yl)-N-(2-fluoro-3-hydroxy-3-methylbutyl)-4-((3-methoxypropyl)amino) nicotinamide], the half-maximal effective concentration (EC50) in the test on TNFα is 91 nM. Further, 1 nM corresponded to half-maximal inhibition on IRAK4 enzyme (IC50).

In the case of `CC(C)Nc1cc(-c2ccc3cc(C#N)cnn23)ncc1C(=O)NC1CCC(NC(=O)C2(C)COC2)CC1` (centres unmarked) [Example 134, 6-(3-cyanopyrrolo[1,2-b]pyridazin-7-yl)-4-(isopropylamino)-N-((1r,4r)-4-(3-methyloxetane-3-carboxamido)cyclohexyl)nicotinamide], in the test with TNFα, the EC50 turned out to be 101 nM. The same compound displayed a half-maximal inhibitory concentration (IC50) at IRAK4 enzyme of 1 nM.

On to `CC(C)Nc1cc(-c2ccc3cc(C#N)cnn23)ncc1C(=O)NC1CCC(NC(=O)C(C)(C)O)CC1` (centres unmarked) [Example 135, 6-(3-cyanopyrrolo[1,2-b]pyridazin-7-yl)-N-((1r,4r)-4-(2-hydroxy-2-methylpropanamido)cyclo-hexyl)-4-(isopropylamino) nicotinamide], for which the EC50 in the test with TNFα stood at 130 nM. Further, the 50% inhibitory concentration (IC50) against IRAK4 enzyme turned out to be 2 nM.

Consider `CC1(F)CC(Nc2cc(-c3ccc4cc(C#N)cnn34)ncc2C(=O)NC[C@@H](F)C(C)(C)O)C1` (stereo partly drawn) [Example 136, (R)-6-(3-cyanopyrrolo[1,2-b]pyridazin-7-yl)-N-(2-fluoro-3-hydroxy-3-methylbutyl)-4-((3-fluoro-3-methylcyclobutyl)amino) nicotinamide], for which, in the test with TNFα, the half-maximal effective concentration (EC50) was 163 nM. The compound also yielded an IC50 against IRAK4 enzyme of 2 nM.

With `CC(C)(O)[C@H](F)CNC(=O)c1cnc(-c2ccc3cc(C#N)cnn23)cc1NCC1CC1(F)F` (stereo partly drawn) [Example 137, 6-(3-cyanopyrrolo[1,2-b]pyridazin-7-yl)-4-(((2,2-difluorocyclopropyl)methyl)amino)-N-((R)-2-fluoro-3-hydroxy-3-methylbutyl)nicotinamide], the EC50 in the test with TNFα was 140 nM. On IRAK4 enzyme, this compound displayed an IC50 of 2 nM.

For the compound `CC(C)(O)Cn1cc(Nc2cc(-c3ccc4cc(C#N)cnn34)ncc2C(=O)NC[C@@H](F)C(C)(C)O)cn1` [Example 138, (R)-6-(3-cyanopyrrolo[1,2-b]pyridazin-7-yl)-N-(2-fluoro-3-hydroxy-3-methylbutyl)-4-((1-(2-hydroxy-2-methylpropyl)-1H-pyrazol-4-yl)amino)nicotinamide], the EC50 in the test with TNFα came out at 117 nM. The compound also showed an IC50 on IRAK4 enzyme of 1 nM.

As to `CC(C)Nc1cc(-c2ccc3cc(C#N)cnn23)ncc1C(=O)NC1CCS(=O)(=O)CC1` [Example 139, 6-(3-cyanopyrrolo[1,2-b]pyridazin-7-yl)-N-(1,1-dioxidotetrahydro-2H-thiopyran-4-yl)-4-(isopropylamino) nicotinamide], the EC50 in the test with TNFα is 254 nM. The compound also came in with an IC50 on IRAK4 enzyme of 19 nM.

For the compound `CC(C)(O)[C@H](F)CNC(=O)c1cnc(-c2ccc3cc(C#N)cnn23)cc1Nc1ccc(C#N)cc1` [Example 140, (R)-4-((4-cyanophenyl)amino)-6-(3-cyanopyrrolo[1,2-b]pyridazin-7-yl)-N-(2-fluoro-3-hydroxy-3-methylbutyl)nicotinamide], the EC50 in the test on TNFα amounted to 58 nM. On IRAK4 enzyme, the half-maximal inhibitory concentration (IC50) was less than 1 nM.

For `CC(C)(O)[C@H](F)CNC(=O)c1cnc(-c2ccc3cc(C#N)cnn23)cc1Nc1cccc(C#N)c1` [Example 141, (R)-4-((3-cyanophenyl)amino)-6-(3-cyano-pyrrolo[1,2-b]pyridazin-7-yl)-N-(2-fluoro-3-hydroxy-3-methylbutyl)nicotinamide], the EC50 in the test with TNFα was found to be 70 nM. On IRAK4 enzyme, this compound displayed a concentration for half-maximal inhibition (IC50) of less than 1 nM.

Turning to `Cc1nsc(Nc2cc(-c3ccc4cc(C#N)cnn34)ncc2C(=O)NC[C@@H](F)C(C)(C)O)n1` [Example 142, (R)-6-(3-cyanopyrrolo[1,2-b]pyridazin-7-yl)-N-(2-fluoro-3-hydroxy-3-methylbutyl)-4-((3-methyl-1,2,4-thiadiazol-5-yl)amino) nicotinamide], the EC50 in the test with TNFα came out at 169 nM. This compound registered an IC50 against IRAK4 enzyme of 4 nM.

In the case of `CC(C)(O)[C@H](F)CNC(=O)c1cnc(-c2ccc3cc(C#N)cnn23)cc1Nc1ccccc1C#N` [Example 143, (R)-4-((2-cyanophenyl)amino)-6-(3-cyanopyrrolo[1,2-b]pyridazin-7-yl)-N-(2-fluoro-3-hydroxy-3-methylbutyl)nicotinamide], the EC50 in the test on TNFα turned out to be 720 nM. The same compound returned a concentration for half-maximal inhibition (IC50) against IRAK4 enzyme of 18 nM.

As to `CC(C)(O)[C@H](F)CNC(=O)c1cnc(-c2ccc3cc(C#N)cnn23)cc1Nc1nnc(N2CCOCC2)o1` [Example 144, (R)-6-(3-cyanopyrrolo[1,2-b]pyridazin-7-yl)-N-(2-fluoro-3-hydroxy-3-methylbutyl)-4-((5-morpholino-1,3,4-oxadiazol-2-yl)amino) nicotinamide], the EC50 with TNFα was greater than 10000 nM. The compound also returned an IC50 against IRAK4 enzyme of 656 nM.

Regarding `CC(C)(O)[C@H](F)CNC(=O)c1cnc(-c2ccc3cc(C#N)cnn23)cc1Nc1cncnc1` [Example 145, (R)-6-(3-cyanopyrrolo[1,2-b]pyridazin-7-yl)-N-(2-fluoro-3-hydroxy-3-methylbutyl)-4-(pyrimidin-5-ylamino)nicotinamide], the EC50 in the test on TNFα was 70 nM. The compound further came in with an IC50 against IRAK4 enzyme of less than 1 nM.

Consider `Cc1nnc(Nc2cc(-c3ccc4cc(C#N)cnn34)ncc2C(=O)NC[C@@H](F)C(C)(C)O)s1` [Example 146, (R)-6-(3-cyanopyrrolo[1,2-b]pyridazin-7-yl)-N-(2-fluoro-3-hydroxy-3-methylbutyl)-4-((5-methyl-1,3,4-thiadiazol-2-yl)amino)nicotinamide], for which the concentration giving a half-maximal response (EC50) in the test with TNFα turned out to be 117 nM. The same compound came in with an IC50 on IRAK4 enzyme of 1 nM.

For `CC(C)(O)[C@H](F)CNC(=O)c1cnc(-c2ccc3cc(C#N)cnn23)cc1N[C@H]1[C@@H]2COC[C@@H]21` [Example 147, 4-(((1R,5S,6r)-3-oxabicyclo[3.1.0]hexan-6-yl)amino)-6-(3-cyano-pyrrolo[1,2-b]pyridazin-7-yl)-N-((R)-2-fluoro-3-hydroxy-3-methylbutyl)nicotinamide], the EC50 in the test with TNFα was determined as 47 nM. At IRAK4 enzyme, this compound came in with an IC50 of less than 1 nM.

As for `CC(C)(O)[C@H](F)CNC(=O)c1cnc(-c2ccc3cc(C#N)cnn23)cc1N[C@@H]1[C@@H]2COC[C@@H]21` [Example 148, 4-(((1R,5S,6s)-3-oxabicyclo[3.1.0]hexan-6-yl)amino)-6-(3-cyano-pyrrolo[1,2-b]pyridazin-7-yl)-N-((R)-2-fluoro-3-hydroxy-3-methylbutyl)nicotinamide], in the test on TNFα, the EC50 amounted to 206 nM. For the same compound, on IRAK4 enzyme, the IC50 was 2 nM.

Take `CC(C)Nc1cc(-c2ccc3cc(C#N)cnn23)ncc1C(=O)NC1CC2(CC(O)C2)C1` (centres unmarked) [Example 149, 6-(3-cyanopyrrolo[1,2-b]pyridazin-7-yl)-N-(6-hydroxyspiro[3.3]heptan-2-yl)-4-(isopropylamino) nicotinamide]: the half-maximal effective concentration (EC50) with TNFα turned out to be 148 nM. Besides, inhibition on IRAK4 enzyme was half-maximal at 1 nM (IC50).

As for `CC(C)(O)[C@H](F)CNC(=O)c1cnc(-c2ccc3cc(C#N)cnn23)cc1N[C@@H]1CCOC[C@H]1F` [Example 150, 6-(3-cyanopyrrolo[1,2-b]pyridazin-7-yl)-N-((R)-2-fluoro-3-hydroxy-3-methylbutyl)-4-(((3S,4R)-3-fluorotetrahydro-2H-pyran-4-yl)amino)nicotinamide], the 50% effective concentration (EC50) with TNFα turned out to be 51 nM. Also, the IC50 at IRAK4 enzyme is less than 1 nM.

Turning to `CC(C)(O)[C@H](F)CNC(=O)c1cnc(-c2ccc3cc(C#N)cnn23)cc1N[C@H]1CCOC[C@@H]1F` [Example 151, 6-(3-cyanopyrrolo[1,2-b]pyridazin-7-yl)-N-((R)-2-fluoro-3-hydroxy-3-methylbutyl)-4-(((3R,4S)-3-fluorotetrahydro-2H-pyran-4-yl)amino) nicotinamide], the EC50 in the test with TNFα came to 96 nM. Besides, the half-inhibitory concentration (IC50) at IRAK4 enzyme is less than 1 nM.
